Laboratory results published in patent US12600740B2, “Fluorinated N-acetyl glucosamine analogs and xylose derivatives” (UTI Limited Partnership, priority 2018, dated 2026).
Entries after “also recorded” stand apart in the source; their conditions may differ.

Tests used:
EAE mice [1] = conditions: previously shown (Keough et al. 2016), 50 mgkg−1; cited from earlier work
[2] = tested on: mice demyelinated with lysolecithin; conditions: previously described (Keough et al. 2016); cited from earlier work
splenocytes [3] = conditions: shown previously (Grigorian et al. 2011); cited from earlier work
EAE mice [4] = test: Flow cytometry of spinal cord and circulating leukocytes in EAE mice; format: in vivo, mouse
Source text: To assess the inflammatory profile of circulating leukocytes, we performed flow cytometry using a modified protocol published previously [Bellavance, M. A., Gosselin, D., Yong, V. W., Stys, P. K. & Rivest, S. Patrolling monocytes play a critical role in CX3CR1-mediated neuroprotection during excitotoxicity. Brain Struct Funct 220, 1759-76 (2015)]. Briefly, mice were anaesthetized using ketamine/xylazine, after which blood was drawn via cardiac puncture. Heparin-coated syringes were used to draw approximately 130 μL of blood, which was then subsequently diluted with 70 μL of Hanks' Balanced Salt Solution (HBSS; Gibco) without calcium and magnesium. Fc receptors were then blocked by addition of Mouse BD Fc Block (1:100; BD Pharmingen) for 30 minutes at 4° C. Primary antibodies (1:50) were then added and incubated for 45 minutes at 4° C. The primary antibodies used were CD45-PerCP (BD Pharmingen; Clone 30-F11), CD11b-FITC (BD Pharmingen; Clone M1/70), Ly6G-APC-Cy7 (BD Pharmingen; Clone 1A8), Ly6C-V450 (BD Horizon; Clone AL-21), and CD3-PE (BD Pharmingen; Clone 17A2). Red blood cells were then lysed by rocking samples at room temperature for 12 minutes with 1 mL of BD FACS Lysing Solution (BD Biosciences). Samples were then washed at 1200 rpm for 10 minutes at 4° C., followed by two more washes at 2000 rpm for 3 minutes at 4° C. Prior to acquisition on a flow cytometer (BD LSRII), cells were then fixed in 1% formalin for 10 minutes and then resuspended in HBSS without calcium and magnesium.
For flow cytometry of the spinal cord, spinal cords were dissected following a PBS perfusion. The thoracic and lumber sacral part of isolated spinal cords were separated into neural and leucocyte populations by density gradient centrifugation using isotonic Percoll (GE Healthcare). The leukocytes samples were prepared at 4° C. in fluorescence-activated cell sorting (FACS) buffer solution (BD Biosciences) and Fc receptors were then blocked by addition of Mouse BD Fc Block (1:100; BD Pharmingen) for 30 minutes at 4° C. The cells were stained with antibodies against CD45-PerCP (BD Pharmingen; Clone 30-F11), CD11b-FITC (BD Pharmingen; Clone M1/70) and CD3-APC-Cy7 (BD Pharmingen; Clone 17A2) for 45 minutes and then washed three times with FACS buffer. The cells were fixed in 1% buffered formalin for 10 min and resuspended in the 200 μl of the FACS buffer.
Data acquisition was performed on a flow cytometer (BD FACSAria; BD Biosciences) and analysed with FlowJo software (version 8.6, TreeStar). To ensure proper compensation and gating, unstained samples, appropriate isotype controls, and single-stain controls were included. All data was analyzed using FlowJo software.

splenocytes [5] = test: Propidium iodide DNA cell cycle flow cytometry of splenocytes; format: cell-based, mouse; conditions: activated splenocytes
Source text: Cell-cycle flow cytometry with propidium iodide was used to corroborate the above results, and ensure the reduction in proliferation was not due to cell death. […] To further investigate whether the reduction of proliferation was due to cell death, Annexin V and propidium iodide staining were used to differentiate necrotic cells (propidium iodide+), apoptotic cells (annexin V+), dead cells (propidium iodide+ and annexin V+), and live cells (propidium iodide-annexin V−).
Cell cycle staining with propidium iodide (PI) and analysis by flow cytometry gives percentage of cells in apoptosis, G1, G2, and synthesis, and apoptosis. Following a membrane permeabilization, PI chelates to DNA and level of staining specifies the stage of the cell cycle (e.g., G2 phase will have twice the DNA and thus twice the PI signal as G1 phase, apoptotic cells contain less DNA than healthy cells and are identified by low PI staining). 1×10^6 splenocytes were used per sample, with four replicates per condition. Cells were collected into a tube with PBS and centrifuged (200 r.p.m. for 5 minutes). […] Suspension was transferred to a FACs tube and analyzed. Annexin V/Propidium iodide staining was detected using the Annexin V FITC apoptosis detection kit (BD Biosciences, #556547), which was performed according to manufacturer's instructions.

splenocytes [6] = test: Splenocyte thymidine proliferation assay (anti-CD3/anti-CD28); format: cell-based, mouse; conditions: increasing concentrations, 48 hours
EAE mice [7] = test: Perivascular cuffs per spinal cord and Imaris quantification of CD45+ cells in EAE mice; format: in vivo, mouse
Source text: Previously it was shown that CSPGs are accumulated in perivascular cuffs and may have a role in activating immune cells and promoting their migration into the CNS [Stephenson, E. L. et al. Chondroitin sulfate proteoglycans as novel drivers of leucocyte infiltration in multiple sclerosis. Brain: a journal of neurology 141, 1094-1110 (2018)]. For the current study, cervical spinal cord sections from EAE mice treated with Ac-4,4-diF-GlcNAc 16 or vehicle were stained with pan-laminin and CD45. Confocal images were processed by Imaris software to quantify the number of CD45+ cells and their intra-parenchymal distances from perivascular cuffs as previously described [Stephenson, E. L. et al. Chondroitin sulfate proteoglycans as novel drivers of leucocyte infiltration in multiple sclerosis. Brain: a journal of neurology 141, 1094-1110 (2018)] (FIG. 10f).
Perivascular cuffs were identified with pan-laminin staining of two basement membranes with CD45+ cells clustered within the perivascular space. To obtain the average number of perivascular cuffs per spinal cord, perivascular cuffs were counted on 4 cervical spinal cord sections (each >200 μm apart), and then averaged to obtain the average perivascular cuffs per spinal cord per mouse. The Imaris software (Bitplane, Switzerland) was used to quantify the number and distance of CD45+ cells around perivascular cuffs. CD45+ cells were registered as spots and the laminin-positive membranes were registered as surfaces. The Xtension component in Imaris ‘distance transformation’ calculated the distance of every CD45+ cell from the perivascular cuff.

[8] = 25 mg/kg daily day 7 to 15, lumbar/thoracic spinal cord
[9] = 25 mg/kg daily day 7 to 15, spinal cord

**Q.** For CC(=O)NC1C(OC(C)=O)OC(COC(C)=O)[C@@H](F)C1OC(C)=O (some centres unmarked) [Compound 3, reference compound], which EAE clinical disability (EAE mice [1]) is on record?
**A.** attenuated the severity of mice afflicted with EAE; also recorded: reduced the ensuing EAE clinical disability

**Q.** What about the remyelination [2] of the same compound?
**A.** promoted remyelination following lysolecithin demyelination of the mouse spinal cord

**Q.** With CC(=O)N[C@H]1[C@H](OC(C)=O)O[C@H](COC(C)=O)[C@@H](OC(C)=O)[C@@H]1OC(C)=O [Compound 1, reference compound] as the compound, how does the splenocyte proliferation (splenocytes [3]) read?
**A.** reduction in splenocyte proliferation

**Q.** Which results are given for CC(=O)NC1C(OC(C)=O)OC(COC(C)=O)C(F)(F)[C@@H]1OC(C)=O (mixture of isomers) [Compound 16, 2-Acetamido-1,3,6-tri-O-acetyl-2,4-dideoxy-4,4-difluoro-α/β-D-xylo-hexopyranose]?
**A.** circulating monocyte, neutrophil and lymphocyte populations (EAE mice [4]; 25 mg/kg daily day 7 to 15, blood at peak EAE): no significant difference; also recorded: did not show changes in monocyte or lymphocyte populations; also recorded: did not affect levels of circulating leukocytes; CD45+ CD3+ T lymphocytes within the spinal cord (EAE mice [4]; [8]): significantly lowered; CD45HiCD11b+ infiltrating monocytes/macrophages in spinal cord (EAE mice [4]; [8]): significantly decreased; median fluorescence intensity of CD11b of CD11b+CD45+ cells (EAE mice [4]; [9]): significantly reduced; median fluorescence intensity of CD45 in CD11b+CD45+ cells (EAE mice [4]; [9]): decreased; percentage of cells in cell cycle phases (splenocytes [5]): reduced the percentage of cells in the S (DNA synthesis)-phase of the cell cycle; dose-response to reduce proliferation in splenocytes (splenocytes [6]): more effective than Ac-4-F-GlcNAc 3 at lower concentrations; CD45+ cells by distance from perivascular cuffs, overall versus vehicle (EAE mice [7]; 0 to 100 μm, two-way repeated measures ANOVA): overall significant difference; average number of perivascular cuffs per spinal cord (EAE mice [7]; 25 mg/kg daily day 7 to 15): significantly reduced average number of perivascular cuffs; CD45+ cells in the vicinity of perivascular cuffs (within 100 μm) (EAE mice [7]; 25 mg/kg daily day 7 to 15, cervical spinal cord): significantly fewer CD45+ cells in the vicinity of perivascular cuffs; number of CD45+ cells at 50-100 μm from perivascular cuffs versus vehicle (EAE mice [7]; 50-100 μm): significant difference
